Experimental data reported in patent US12570704B2, “Functionally modified maytansinoids and compositions and methods of use thereof” (University of Georgia Research Foundation, Inc., priority 2019, dated 2026).

What was measured:
[1] = NO release in solution with and without 6 Gy X-ray irradiation (Greiss assay); format: physicochemical; settings: for NO release: Greiss assay
From the text: (§1) FIGS. 1A and 1B are schemes illustrating how DM1-NO encapsulated PLGA-b-PEG nanoparticles (DM1-NO-NPs) can accumulate in tumors through the EPR effect. In the presence of radiation and/or reduced pH in endosomes/lysosomes, the S—N bond was broken, releasing DM1 and NO. DM1 inhibits microtubule assembly, arresting cells at the more radiosensitive G2/M phase. Meanwhile, NO can react with ROS to form radicals such as peroxynitrites, causing DNA and lipid damages. The combined effects enhance the efficacy of RT. […] Quantification was based on Greiss assay. PBS, cell culture medium (RPBI-1640), DM1, and DM1-NPs were tested as controls. FIG. 1D is a histogram showing the results of DLS analysis of DM1-NO-NPs in water. FIG. 1E is a plot showing the zeta potential of DM1-NO-NPs in water. FIG. 1F is a bar graph illustrating the stability of DM1-NO under ambient conditions. After synthesis, dry product of DM1-NO was kept at room temperature and the total amount of remaining NO was quantified using Griess assay on Day 0, 7, 14, and 21. FIG. 1G is plot illustrating the stability of DM1-NO in solutions. DM1-NO (20.09 μmol) was dissolved in PBS of different pH (5.5, 6.5, and 7.4). Time-dependent NO release was measured on a Sievers NOA 280i system, which assesses NO based on gas phase chemiluminescent reaction between NO and ozone. FIG. 1H is a line graph showing release profiles for DM1-NO-NPs, tested in PBS of different pH at 37° C. by Greiss assays. FIG. 1I is a histogram showing the results of DLS analysis of DM1-NPs. FIG. 1J is a plot showing the zeta potential of DM1-NPs. FIG. 1K is a series of representative images of clonogenic assays. H1299 cells were treated with 20 nM of DM1 and DM1-NO for 12 h, followed −X-ray irradiation (6 Gy). […]
NO concentration was assessed to determine the amount of DM1-NO prodrug loaded into the DM1-NO-NPs. […] Therefore, to quantify the overall NO amount, the total nitrite (NO2-) and nitrate (NO3-) concentrations in a NP solution cells) were measured using Nitrate/Nitrite Colorimetric assay (Cayman Chemical) by following the vendor's protocol. […]

[2] = Stability of dry DM1-NO under ambient conditions (Griess assay); format: physicochemical; settings: powder form, 2 weeks' storage at room temperature
From the text: as §1, with “ozone.” for “ozone. FIG. 1H is a line graph showing release profiles for DM1-NO-NPs, tested in PBS of different pH at 37° C. by Greiss assays. FIG. 1I is a histogram showing the results of DLS analysis of DM1-NPs. FIG. 1J is a plot showing the zeta potential of DM1-NPs. FIG. 1K is a series of representative images of clonogenic assays. H1299 cells were treated with 20 nM of DM1 and DM1-NO for 12 h, followed −X-ray irradiation (6 Gy).”

COc1cc2cc(c1Cl)N(C)C(=O)C[C@@H](OC(=O)[C@H](C)N(C)C(=O)CCSN=O)[C@]1(C)OC1[C@H](C)[C@@H]1C[C@@](O)(NC(=O)O1)[C@H](OC)/C=C\C=C(/C)C2 (stereo partly shown) [DM1-NO]
increase of NO release ([1]; 6 Gy X-ray irradiation applied to solution): 5.14 fold
NO release ([1]; before 6 Gy X-ray irradiation): 3.68 µM
NO release ([1]; in the presence of 6 Gy X-ray irradiation): 18.88 µM
compound degraded [2]: less than 10%
